pEC50: −log10 of the molar value.
What was measured:
[1] = Compound cytotoxicity, XTT-based colorimetric assay; assay type: cell-based; conditions: human; uninfected MT2 cells, day 4, XTT
Method in brief: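 Run under the antiviral-assay protocol but without virus. Viability was read on day 4 and CC50 values were derived from the readout.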

[2] = test system: recombinant NL4-3 virus (Renilla luciferase) in MT-2 cells; assay: HIV cell culture assay (antiviral activity, luciferase readout); assay type: cell-based; conditions: Renilla, NL43
Method in brief: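 MT-2 cells were infected with recombinant NL4-3 virus carrying Renilla luciferase in place of part of nef. Cells were cultured 4–5 days with serially diluted compound, and luciferase was measured with a live-cell substrate. EC50 was calculated from the median effect equation.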

| Compound | CC50 at 4 days [1] [nM] | pEC50 [2] |
| --- | --- | --- |
| Cc1nccc(-c2ccc3c(=O)n(-c4ccc(Cl)c5c(NS(=O)(=O)C6CC6)nn(CC(F)F)c45)c([C@H](Cc4cc(F)cc(F)c4)NC(=O)Cn4nc(C(F)F)c5c4C(F)(F)[C@@H]4C[C@H]54)nc3c2)n1 (atropisomer, axis not shown; (P)) [Example 81, N—((S)-1-((3P)-3-(4-chloro-3-(cyclopropanesulfonamido)-1-(2,2-difluoroethyl)-1H-indazol-7-yl)-7-(2-methylpyrimidin-4-yl)-4-oxo-3,4-dihydroquinazolin-2-yl)-2-(3,5-difluorophenyl)ethyl)-2-((3bS,4aR)-3-(difluoromethyl)-5,5-difluoro-3b,4,4a,5-tetrahydro-1H-cyclopropa[3,4]cyclopenta[1,2-c]pyrazol-1-yl)acetamide] | > 500 | 10.04 |
| Cc1ccc(-c2ccc3c(=O)n(-c4ccc(Cl)c5c(NS(C)(=O)=O)nn(CC(F)(F)F)c45)c([C@H](Cc4cc(F)cc(F)c4)NC(=O)Cn4nc(C(F)F)c5c4C(F)(F)[C@@H]4C[C@H]54)nc3c2)nn1 (atropisomer, axis not shown) [Example 106, N-[(1S)-1-{3-[4-chloro-3-methanesulfonamido-1-(2,2,2-trifluoroethyl)-1H-indazol-7-yl]-7-(6-methylpyridazin-3-yl)-4-oxo-3,4-dihydroquinazolin-2-yl}-2-(3,5-difluorophenyl)ethyl]-2-[(2S,4R)-9-(difluoromethyl)-5,5-difluoro-7,8-diazatricyclo[4.3.0.0^2,^4]nona-1(6),8-dien-7-yl]acetamide] | > 500 | 10.37 |
| Cc1cc(C)nc(-c2ccc3c(=O)n(-c4ccc(Cl)c5c(NS(C)(=O)=O)nn(CC(F)F)c45)c([C@H](Cc4cc(F)cc(F)c4)NC(=O)Cn4nc(C(F)F)c5c4C(F)(F)[C@@H]4C[C@H]54)nc3c2)c1 (atropisomer, axis not shown) [Example 137, N-[(1S)-1-{3-[4-chloro-1-(2,2-difluoroethyl)-3-methanesulfonamido-1H-indazol-7-yl]-7-(4,6-dimethylpyridin-2-yl)-4-oxo-3,4-dihydroquinazolin-2-yl}-2-(3,5-difluorophenyl)ethyl]-2-[(2S,4R)-9-(difluoromethyl)-5,5-difluoro-7,8-diazatricyclo[4.3.0.0^2,^4]nona-1(6),8-dien-7-yl]acetamide] | > 500 | 9.70 |
| Cc1ncc(-c2ccc3c(=O)n(-c4ccc(Cl)c5c(NS(C)(=O)=O)nn(C)c45)c([C@H](Cc4cc(F)cc(F)c4)NC(=O)Cn4nc(C(F)F)c5c4C(F)(F)[C@@H]4C[C@H]54)nc3c2)s1 (atropisomer, axis not shown; (P)) [Example 26, N—((S)-1-((3P)-3-(4-chloro-1-methyl-3-(methylsulfonamido)-1H-indazol-7-yl)-7-(2-methylthiazol-5-yl)-4-oxo-3,4-dihydroquinazolin-2-yl)-2-(3,5-difluorophenyl)ethyl)-2-((3bS,4aR)-3-(difluoromethyl)-5,5-difluoro-3b,4,4a,5-tetrahydro-1H-cyclopropa[3,4]cyclopenta[1,2-c]pyrazol-1-yl)acetamide] | > 500 | 9.96 |
| Cn1nc(NS(C)(=O)=O)c2c(Cl)ccc(-n3c([C@H](Cc4cc(F)cc(F)c4)NC(=O)Cn4nc(C(F)F)c5c4C(F)(F)[C@@H]4C[C@H]54)nc4cc(-c5cccc(C(F)F)c5)ccc4c3=O)c21 (atropisomer, axis not shown) [Example 120] | > 500 | 9.42 |
| CC(C)c1nccc(-c2ccc3c(=O)n(-c4ccc(Cl)c5c(NS(C)(=O)=O)nn(CC(F)(F)F)c45)c([C@H](Cc4cc(F)cc(F)c4)NC(=O)Cn4nc(C(F)F)c5c4C(F)(F)[C@@H]4C[C@H]54)nc3c2)n1 (atropisomer, axis not shown) [Example 108] | > 500 | 9.92 |
| CS(=O)(=O)Nc1nn(CC(F)F)c2c(-n3c([C@H](Cc4cc(F)cc(F)c4)NC(=O)Cn4nc(C(F)F)c5c4C(F)(F)[C@@H]4C[C@H]54)nc4cc(-c5ncccc5S(C)(=O)=O)ccc4c3=O)ccc(Cl)c12 (atropisomer, axis not shown) [Example 136, N-[(1S)-1-{3-[4-chloro-1-(2,2-difluoroethyl)-3-methanesulfonamido-1H-indazol-7-yl]-7-(3-methanesulfonylpyridin-2-yl)-4-oxo-3,4-dihydroquinazolin-2-yl}-2-(3,5-difluorophenyl)ethyl]-2-[(2S,4R)-9-(difluoromethyl)-5,5-difluoro-7,8-diazatricyclo[4.3.0.0^2,^4]nona-1(6),8-dien-7-yl]acetamide] | > 500 | 10.34 |
| Cc1nc(C)c(C)c(-c2ccc3c(=O)n(-c4ccc(Cl)c5c(NS(=O)(=O)C6CC6)nn(CC(F)F)c45)c([C@H](Cc4cc(F)cc(F)c4)NC(=O)Cn4nc(C(F)F)c5c4C(F)(F)[C@@H]4C[C@H]54)nc3c2)n1 (atropisomer, axis not shown; (P)) [Example 92, N—((S)-1-((3P)-3-(4-chloro-3-(cyclopropanesulfonamido)-1-(2,2-difluoroethyl)-1H-indazol-7-yl)-4-oxo-7-(2,5,6-trimethylpyrimidin-4-yl)-3,4-dihydroquinazolin-2-yl)-2-(3,5-difluorophenyl)ethyl)-2-((3bS,4aR)-3-(difluoromethyl)-5,5-difluoro-3b,4,4a,5-tetrahydro-1H-cyclopropa[3,4]cyclopenta[1,2-c]pyrazol-1-yl)acetamide] | > 500 | 10.00 |
| CCc1ccnc(-c2ccc3c(=O)n(-c4ccc(Cl)c5c(NS(=O)(=O)C6CC6)nn(CC(F)F)c45)c([C@H](Cc4cc(F)cc(F)c4)NC(=O)Cn4nc(C(F)F)c5c4C(F)(F)[C@@H]4C[C@H]54)nc3c2)n1 (atropisomer, axis not shown; (P)) [Example 93, N—((S)-1-((3P)-3-(4-chloro-3-(cyclopropanesulfonamido)-1-(2,2-difluoroethyl)-1H-indazol-7-yl)-7-(4-ethylpyrimidin-2-yl)-4-oxo-3,4-dihydroquinazolin-2-yl)-2-(3,5-difluorophenyl)ethyl)-2-((3bS,4aR)-3-(difluoromethyl)-5,5-difluoro-3b,4,4a,5-tetrahydro-1H-cyclopropa[3,4]cyclopenta[1,2-c]pyrazol-1-yl)acetamide] | > 500 | 9.74 |
| COc1ncc(-c2ccc3c(=O)n(-c4ccc(Cl)c5c(NS(C)(=O)=O)nn(C)c45)c([C@H](Cc4cc(F)cc(F)c4)NC(=O)Cn4nc(C(F)F)c5c4C(F)(F)[C@@H]4C[C@H]54)nc3c2)cn1 (atropisomer, axis not shown; (P)) [Example 39, N—((S)-1-((3P)-3-(4-chloro-1-methyl-3-(methylsulfonamido)-1H-indazol-7-yl)-7-(2-methoxypyrimidin-5-yl)-4-oxo-3,4-dihydroquinazolin-2-yl)-2-(3,5-difluorophenyl)ethyl)-2-((3bS,4aR)-3-(difluoromethyl)-5,5-difluoro-3b,4,4a,5-tetrahydro-1H-cyclopropa[3,4]cyclopenta[1,2-c]pyrazol-1-yl)acetamide] | > 500 | 10.38 |
| CN(c1ccc(-c2ccc3c(=O)n(-c4ccc(Cl)c5c(NS(=O)(=O)C6CC6)nn(CC(F)F)c45)c([C@H](Cc4cc(F)cc(F)c4)NC(=O)Cn4nc(C(F)F)c5c4C(F)(F)[C@@H]4C[C@H]54)nc3c2)cc1)S(C)(=O)=O (atropisomer, axis not shown) [Example 147, N-[(1S)-1-{3-[4-chloro-3-cyclopropanesulfonamido-1-(2,2-difluoroethyl)-1H-indazol-7-yl]-7-[4-(N-methylmethanesulfonamido)phenyl]-4-oxo-3,4-dihydroquinazolin-2-yl}-2-(3,5-difluorophenyl)ethyl]-2-[(2S,4R)-9-(difluoromethyl)-5,5-difluoro-7,8-diazatricyclo[4.3.0.0^2,^4]nona-1(6),8-dien-7-yl]acetamide] | > 500 | 9.47 |
| CN(c1ccc(-c2ccc3c(=O)n(-c4ccc(Cl)c5c(NS(C)(=O)=O)nn(C)c45)c([C@H](Cc4cc(F)cc(F)c4)NC(=O)Cn4nc(C(F)F)c5c4C(F)(F)[C@@H]4C[C@H]54)nc3c2)cc1)S(C)(=O)=O [Example 29, N—((S)-1-((3P)-3-(4-chloro-1-methyl-3-(methylsulfonamido)-1H-indazol-7-yl)-7-(4-(N-methylmethylsulfonamido)phenyl)-4-oxo-3,4-dihydroquinazolin-2-yl)-2-(3,5-difluorophenyl)ethyl)-2-((3bS,4aR)-3-(difluoromethyl)-5,5-difluoro-3b,4,4a,5-tetrahydro-1H-cyclopropa[3,4]cyclopenta[1,2-c]pyrazol-1-yl)acetamide] | > 500 | 9.54 |
| Cc1nc(-c2ccc3c(=O)n(-c4ccc(Cl)c5c(NS(C)(=O)=O)nn(C)c45)c([C@H](Cc4cc(F)cc(F)c4)NC(=O)Cn4nc(C(F)F)c5c4C(F)(F)[C@@H]4C[C@H]54)nc3c2)cc(C(F)(F)F)n1 (atropisomer, axis not shown; (P)) [Example 63, N—((S)-1-((3P)-3-(4-chloro-1-methyl-3-(methylsulfonamido)-1H-indazol-7-yl)-7-(2-methyl-6-(trifluoromethyl)pyrimidin-4-yl)-4-oxo-3,4-dihydroquinazolin-2-yl)-2-(3,5-difluorophenyl)ethyl)-2-((3bS,4aR)-3-(difluoromethyl)-5,5-difluoro-3b,4,4a,5-tetrahydro-1H-cyclopropa[3,4]cyclopenta[1,2-c]pyrazol-1-yl)acetamide] | > 500 | 9.48 |

— patent US11541055B2, “Inhibitors of human immunodeficiency virus replication” (ViiV Healthcare UK (No. 5) LIMITED, priority 2018, dated 2023)
